ChEMBL document CHEMBL1221404, “Caylobolide B, a macrolactone from symplostatin 1-producing marine cyanobacteria Phormidium spp. from Florida” (J Nat Prod, 2010)

Experiments:
Type in all cases: functional, cell-based
[1] = tested on: HeLa; assay: Cytotoxicity against human HeLa cells after 48 hrs by MTT assay
[2] = tested on: HT-29; assay: Cytotoxicity against human HT-29 cells after 48 hrs by MTT assay; details: HT-29, 48 h
[3] = tested on: HCT-116; assay: Cytotoxicity against human HCT116 cells

Compound `CCCCC(C)C1CC(O)CCC[C@H](O)C[C@@H](O)C[C@@H](O)CCCC(O)CCCC(O)CCCC(O)CCC[C@@H](O)C[C@@H](O)CCC/C(C)=C/C(=O)O1` (some centres undefined) [CAYLOBOLIDE B] has an IC50 [1] of 12.2 µM and an IC50 [2] of 4.5 µM.
In the case of `CC[C@H](C)[C@@H]([C@@H](CC(=O)N1CCC[C@H]1[C@H](OC)[C@@H](C)C(=O)N[C@@H](Cc1ccccc1)c1nccs1)OC)N(C)C(=O)[C@@H](NC(=O)[C@H]([C@@H](C)CC)N(C)C)C(C)C` [SYMPLOSTATIN 1], the IC50 [2] is reported as 0.0015 µM.
In the case of `CCCCC(C)C1C[C@@H](O)CCC[C@H](O)C[C@@H](O)C[C@@H](O)CCCC(O)CCCC(O)CCCC(O)CCCC(O)CC(O)CCC/C(C)=C/C(=O)O1` (some centres undefined) [CAYLOBOLIDE A], the AC50 [3] is reported as “Active”.
